Experiments:
Experiment in all cases: Competitive isoTOP-ABPP, cell lysates
Assay type in all cases: binding
ACAT1 C413 (P24752) = molecular target: T1, ACAT1 C413 (P24752) (Homo sapiens, UniProt P24752); details: 500 μm
T1 sequence (P24752 34-427): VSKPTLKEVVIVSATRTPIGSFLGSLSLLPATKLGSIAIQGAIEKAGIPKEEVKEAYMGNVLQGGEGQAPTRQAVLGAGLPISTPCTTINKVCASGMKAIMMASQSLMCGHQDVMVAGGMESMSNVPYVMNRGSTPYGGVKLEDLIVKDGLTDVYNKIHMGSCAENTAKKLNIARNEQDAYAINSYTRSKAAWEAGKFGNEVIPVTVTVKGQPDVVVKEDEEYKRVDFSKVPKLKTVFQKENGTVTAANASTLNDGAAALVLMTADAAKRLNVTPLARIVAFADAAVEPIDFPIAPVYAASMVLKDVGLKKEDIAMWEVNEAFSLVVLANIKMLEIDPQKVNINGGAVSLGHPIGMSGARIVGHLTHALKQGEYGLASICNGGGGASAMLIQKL

UBE2S C118 (Q16763) = molecular target: T2, UBE2S C118 (Q16763) (Homo sapiens, UniProt Q16763); details: 500 μm
T2 sequence (Q16763 1-222): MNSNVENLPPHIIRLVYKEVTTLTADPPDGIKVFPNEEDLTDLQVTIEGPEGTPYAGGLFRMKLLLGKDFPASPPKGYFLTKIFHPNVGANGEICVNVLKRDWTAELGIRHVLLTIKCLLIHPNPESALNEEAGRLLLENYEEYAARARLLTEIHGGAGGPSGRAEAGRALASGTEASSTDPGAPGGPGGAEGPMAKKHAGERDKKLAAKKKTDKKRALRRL

ACAT1 C126 (P24752) = molecular target: T3, ACAT1 C126 (P24752) (Homo sapiens, UniProt P24752); details: 500 μm
T3 sequence (P24752 34-427): T1 sequence (P24752 34-427)

ACAT1 C119 (P24752) = molecular target: T4, ACAT1 C119 (P24752) (Homo sapiens, UniProt P24752); details: 500 μm
T4 sequence (P24752 34-427): T1 sequence (P24752 34-427)

ACAT1 C196 (P24752) = molecular target: T5, ACAT1 C196 (P24752) (Homo sapiens, UniProt P24752); details: 500 μm
T5 sequence (P24752 34-427): T1 sequence (P24752 34-427)

USP22 C171 (Q9UPT9) = molecular target: T6, USP22 C171 (Q9UPT9) (Homo sapiens, UniProt Q9UPT9); details: 500 μm, in-vitro_ramos
T6 sequence (Q9UPT9 1-525): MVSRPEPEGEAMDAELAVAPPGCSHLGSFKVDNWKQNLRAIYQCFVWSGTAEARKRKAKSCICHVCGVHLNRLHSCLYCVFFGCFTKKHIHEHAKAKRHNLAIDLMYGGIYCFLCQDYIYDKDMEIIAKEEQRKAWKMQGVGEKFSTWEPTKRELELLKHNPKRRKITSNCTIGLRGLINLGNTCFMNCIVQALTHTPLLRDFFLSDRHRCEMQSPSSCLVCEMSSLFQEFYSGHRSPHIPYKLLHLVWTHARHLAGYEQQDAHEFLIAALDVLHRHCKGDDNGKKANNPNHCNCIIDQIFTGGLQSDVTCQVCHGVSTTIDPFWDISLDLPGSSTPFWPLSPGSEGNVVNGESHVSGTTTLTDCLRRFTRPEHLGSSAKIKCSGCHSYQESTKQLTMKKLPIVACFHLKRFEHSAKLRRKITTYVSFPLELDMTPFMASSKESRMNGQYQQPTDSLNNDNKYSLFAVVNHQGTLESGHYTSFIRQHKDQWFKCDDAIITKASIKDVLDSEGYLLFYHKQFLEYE

| SMILES | isoTOP-ABPP reactivity profile ratio, P24752_C413 (ACAT1 C413 (P24752); in-vitro_ramos) | isoTOP-ABPP reactivity profile ratio, P24752_C413 (ACAT1 C413 (P24752); in-vitro_ramos_231) | isoTOP-ABPP reactivity profile ratio, Q16763_C118 (UBE2S C118 (Q16763); in-vitro_ramos) | isoTOP-ABPP reactivity profile ratio, P24752_C126 (ACAT1 C126 (P24752); in-vitro_ramos) | isoTOP-ABPP reactivity profile ratio, P24752_C126 (ACAT1 C126 (P24752); in-vitro_ramos_231) | isoTOP-ABPP reactivity profile ratio, P24752_C119 (ACAT1 C119 (P24752); in-vitro_ramos) | isoTOP-ABPP reactivity profile ratio, P24752_C119 (ACAT1 C119 (P24752); in-vitro_ramos_231) | isoTOP-ABPP reactivity profile ratio, P24752_C196 (ACAT1 C196 (P24752); in-vitro_ramos_231) | isoTOP-ABPP reactivity ratio, P24752_C413 (ACAT1 C413 (P24752); in-vitro_ramos) | isoTOP-ABPP reactivity ratio, Q9UPT9_C171 (USP22 C171 (Q9UPT9)) | isoTOP-ABPP reactivity ratio, P24752_C126 (ACAT1 C126 (P24752); in-vitro_ramos) | isoTOP-ABPP reactivity ratio, P24752_C119 (ACAT1 C119 (P24752); in-vitro_ramos) | isoTOP-ABPP reactivity ratio, P24752_C119 (ACAT1 C119 (P24752); in-vitro_ramos_231) | isoTOP-ABPP reactivity ratio, P24752_C196 (ACAT1 C196 (P24752); in-vitro_ramos) | isoTOP-ABPP reactivity ratio, P24752_C196 (ACAT1 C196 (P24752); in-vitro_ramos_231) | isoTOP-ABPP reactivity profile ratio, Q16763_C118 (UBE2S C118 (Q16763); in-vitro_ramos_231) | isoTOP-ABPP reactivity ratio, P24752_C413 (ACAT1 C413 (P24752); in-vitro_ramos_231) |
| --- | --- | --- | --- | --- | --- | --- | --- | --- | --- | --- | --- | --- | --- | --- | --- | --- | --- |
| O=C(CCl)Nc1cccc2ncccc12 [compound 51] | 1.0 | 1.0 | 0.9 | 1.2 | 1.0 | 0.9 | 0.8 | 1.1 | – | – | – | – | – | – | – | – | – |
| CC1CCc2ccccc2N1C(=O)CCl (stereo not drawn) [compound 45] | – | 20.0 | – | – | 20.0 | – | 12.4 | 20.0 | – | – | – | – | – | – | – | – | – |
| O=C(CCl)Nc1ccccc1C1CCCCCC1 [compound 35] | – | – | – | – | – | – | – | – | 1.3 | 1.5 | 10.4 | 1.0 | 0.9 | 1.4 | 0.9 | – | – |
| C=CC(=O)N(c1ccccc1)C1CCCCC1 [compound 46] | – | 1.1 | – | – | 0.9 | – | 0.8 | 0.9 | – | – | – | – | – | – | – | 1.0 | – |
| O=C(CCl)N(Cc1ccc(F)cc1)C12CC3CC(CC(C3)C1)C2 [compound 34] | – | – | – | – | – | – | – | – | 1.3 | – | 1.1 | – | 0.8 | 1.0 | 0.8 | – | 0.9 |
